Measurements: patent US12593845B2 (priority 2019, dated 2026)

Legend:
Meloidogyne incognita = experiment: Efficacy against Meloidogyne incognita; type: in vivo; conditions: 96 h, second-instar larvae (L2), 40 μL of 125 ppm drug solution added to 160 μL suspension per well, 20° C., 4 days, read-out: nematode mortality rate
Experimental: (§1) 5 parts by weight of the dihydropyrimidine compound of the present invention, 93.5 parts by weight of N,N-dimethylformamide, and 1.5 parts by weight of polyoxyethylene sorbitan monolaurate (TWEEN® 20) were mixed and dissolved to obtain an emulsion (I) including 5% of an active ingredient.
A suspension containing about 50/0.16 mL second-instar larvae (L2) of Meloidogyne incognita was poured into a 96-well microplate at 160 μL per well. Then, a drug solution prepared by adding water to the emulsion (I) so as to have a concentration of the dihydropyrimidine compound of 125 ppm was poured at 40 μL per well. The plate was left to stand under a 20° C. condition for 4 days.
Mortality was determined, and the nematode mortality rate was calculated. […] The test repeated twice.

[1] = system: wheat brown rust pathogen (Puccinia recondita); experiment: Wheat brown rust control test; type: in vivo; conditions: 288 h, 125 ppm drug solution sprayed onto wheat seedlings (Norin 61), lesion area ratio 12 days after inoculation
Experimental: as §1
(§2) The control value was calculated by the following expression. Control value (%)=100−{lesion area ratio in treated group/lesion area ratio in untreated group}×100 [Expression 1]
Water was added to the emulsion (I) such that the concentration of the dihydropyrimidine compound reached 125 ppm to dissolve the emulsion, and a drug solution was obtained. Subsequently, the drug solution was sprayed onto wheat seedlings (variety: “Norin 61”, leaf stage: 1 to 2) cultivated in seedling pots. After air drying, uredospores of a wheat brown rust pathogen (Puccinia recondita) were sprinkled on wheat seedlings sprayed with the drug solution for inoculation (treated group). As a control, wheat seedlings that were not sprayed with the drug solution were inoculated in the same manner as described above (untreated group). The seedlings were left to stand in a greenhouse at 20° C.
On the 12 days after the inoculation, the leaves of the wheat seedlings were visually observed to determine the lesion area ratio, and the control value was calculated.

[2] = system: apple scab pathogen (Venturia inaequalis); experiment: Apple scab control test; type: in vivo; conditions: 336 h, 125 ppm drug solution sprayed onto apple seedlings (Orin), lesion area ratio 2 weeks after inoculation
Procedure, shortened: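 Compound emulsion diluted in water to 125 ppm and sprayed on 3-4 leaf 'Orin' apple seedlings, which were inoculated with V. inaequalis conidiospores after drying and held humidified at 20° C, 12 h light/dark. Lesion area ratio scored 2 weeks post-inoculation; control value computed relative to unsprayed inoculated plants.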

[3] = system: wheat powdery mildew pathogen (Erysiphe graminis f. sp. tritici); experiment: Wheat powdery mildew soil irrigation treatment test; type: in vivo; conditions: Blumeria graminis, 168 h; soil irrigation with 10 ml of 100 ppm drug solution per pot, wheat (Chihoku); inoculation after 8 to 10 days; lesion area ratio 7 days after inoculation
Procedure, shortened: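 Potted wheat seedlings (cv. Chihoku) were soil-drenched with 10 ml of 100 ppm compound from a 5% DMF/Tween 20 emulsion, then inoculated with Erysiphe graminis conidia 8–10 days later and held at 20 °C. Lesion area scored visually at 7 days post-inoculation; control value (%) calculated relative to untreated inoculated plants.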

[4] = system: wheat powdery mildew pathogen (Erysiphe graminis f. sp. tritici); experiment: Wheat powdery mildew seed treatment test; type: in vivo; conditions: Blumeria graminis, 168 h; seed treatment 100 g/100 kg wheat seeds (Chihoku); inoculation after 8 to 10 days; lesion area ratio 7 days after inoculation
Procedure, shortened: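 Wheat seeds (cv. Chihoku) were treated with a 5% emulsion at 100 g compound/100 kg seed, sown, and inoculated with conidiospores after 8 to 10 days. Plants were kept in a greenhouse at 20 °C. Lesion area was scored visually 7 days post-inoculation, and control value was computed relative to untreated inoculated seedlings.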

[5] = system: cucumber gray mold pathogen (Botrytis cinerea); experiment: Cucumber gray mold control test; type: in vivo; conditions: 125 ppm drug solution sprayed onto cucumber seedlings (cotyledon stage); lesion area ratio 4 days after inoculation
Experimental: as §1, §2
Water was added to the emulsion (I) such that the concentration of the dihydropyrimidine compound reached 125 ppm to dissolve the emulsion, and a drug solution was obtained. Subsequently, the drug solution was sprayed onto cucumber seedlings (variety: “creeping” type, cotyledon stage) cultivated in seedling pots. After air drying, a suspension of conidiospores of a cucumber gray mold pathogen (Botrytis cinerea) was dropped thereon for inoculation (treated group). As a control, cucumber seedlings that were not sprayed with the drug solution were inoculated by dropping in the same manner as described above (untreated group). The seedlings were left to stand in a humidified room at 20° C.
On the 4 days after the inoculation, the leaves of the cucumber seedlings were visually observed to determine the lesion area ratio, and the control value was calculated.

Aspergillus niger = experiment: Antimicrobial test against Aspergillus niger; type: cell-based; conditions: 96 h, Vogel medium, 25° C., 4 days in the dark, turbidity at 405 nm, read-out: growth inhibition rate
Procedure, shortened: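 Growth inhibition (%) derived from 405 nm turbidity versus untreated control. Compound, dissolved in DMSO, tested at 25 ppm on spores in Vogel medium; cultures kept dark, 25° C., 4 days.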

[6] = system: wheat powdery mildew pathogen (Erysiphe graminis f. sp. tritici); experiment: Wheat powdery mildew control test; type: in vivo; conditions: Blumeria graminis, 144 h; 125 ppm drug solution sprayed onto wheat seedlings (Chihoku); lesion area ratio 6 days after inoculation
Experimental: as §1, §2
Water was added to the emulsion (I) such that the concentration of the dihydropyrimidine compound reached 125 ppm to dissolve the emulsion, and a drug solution was obtained. Subsequently, the drug solution was sprayed onto wheat seedlings (variety: “Chihoku”, leaf stage: 1 to 2) cultivated in seedling pots. After air drying, conidiospores of a wheat powdery mildew pathogen (Erysiphe graminis f. sp. tritici) were sprinkled thereon for inoculation (treated group). As a control, wheat seedlings that were not sprayed with the drug solution were inoculated in the same manner as described above (untreated group). The seedlings were left to stand in a greenhouse at 20° C.
On the 6 days after the inoculation, the leaves of the wheat seedlings were visually observed to determine the lesion area ratio, and the control value was calculated.

Which results are given for `C=C1CCN(C(=O)C(C)n2c(=O)c(C=NOC(C)C)cn(CC(OCCC#N)c3cc(F)ccc3OC)c2=O)CC1` (centres unmarked) [A-64]?
mortality at 125 ppm (Meloidogyne incognita): ≥ 60%; pest or weed control at 125 ppm [1]: ≥ 75%

What does the source list for `COc1ccc(F)cc1C(O)Cn1cc(/C(C)=N/OC(C)C)c(=O)n(C[C@H](C)NC(=O)C(C)C)c1=O` (stereo partly drawn) [A-75, N-((2S)-1-(3-(2-(5-fluoro-2-methoxyphenyl)-2-hydroxyethyl)-5-((E)-1-(isopropoxyimino)ethyl)-2,6-dioxo-3,6-dihydropyrimidin-1(2H)-yl)propan-2-yl)isobutyramide]?
pest or weed control at 125 ppm [2]: ≥ 75%; pest or weed control at 100 ppm [3]: ≥ 75%; pest or weed control at 100 g/100 kg seed [4]: ≥ 75%; Control value [5]: ≥ 75%; inhibition at 25 ppm (Aspergillus niger): ≥ 50%; pest or weed control at 125 ppm [6]: ≥ 75%
